Results on six molecules are retold here after US20090036437A1, “PHARMACEUTICAL COMPOSITION COMPRISING PHENOXAZINIUM COMPOUND AS AN ACTIVE INGREDIENT” (priority 2005, published 2009).

For assay [1], the system named is Plasmodium Falciparum K1 strain. Put plainly: in vitro growth-inhibiting screening assay, chloroquine-resistant falciparum malaria. The assay is classed as cell-based. Conditions: for EC50: chloroquine-resistant strain, 72 h culture, 3H-hypoxanthine, read-out: 50% growth-inhibiting concentration (nM) P. falciparum K1. The protocol: Plasmodium Falciparum K1 strain was used as a chloroquine-resistant protozoa of falciparum malaria. RMI-1640 sterilized by filtration was supplemented with human serum of a final concentration of 5% to be used as a culture medium. The malaria protozoa were cultured under O2 concentration of 3%, CO2 concentration of 4%, N2 concentration of 93% at 37° C.
A test sample was prepared by dissolving the test compounds according to the present invention and a positive control drug (chloroquine) in DMSO to a predetermined concentration. The erythrocytes infected with the cultured malaria protozoa were collected by centrifugation and so diluted with non-infected erythrocytes to have an initial infection ratio of 0.15%. The hematocrit value was then 2.5%. Culture mixture of the above malaria-infection culture medium (200 μL) was placed into each well of a 96-well culture plate, and the test sample comprising the predetermined amount of the test compound, and DMSO without the test compound were added to the wells in duplicate.
After culture for 48 hours at 37° C., hypoxanthine labeled with radioactive tritium (^3H) of 0.5 μCi was added to each well. After the culture in the same conditions for further 24 hours, the sample was taken on a glass fiber filter and washed with distilled water. Intensity of radiation was measured by means of plate liquid scintillation counter (Wallac Co.), and an infection ratio of the protozoa of malaria was calculated with respect to a group treated with the test sample and the control. A growth-inhibiting ratio was then calculated from the resulting infection ratio in accordance with the following equation to determine 50% growth-inhibiting concentration (EC50).
Growth-inhibiting ratio (%)=[1−(b−a)/(c−a)]×100 • a: Initial infection ratio; • b: Infection ratio of the test sample group; and • c: Infection ratio of the control group. In vitro Growth-Inhibiting Assay of Rat L6 Cells
Anti-malaria effect of the samples was assessed by their EC50 values for the chloroquine-resistant protozoa of falciparum malaria and the rat L6 cell. A chemotherapy coefficient, which is used as an index for the selective toxicity for the chloroquine-resistant protozoa of falciparum malaria was calculated by the following equation, and the pharmaceutical effect was determined.
Chemotherapy coefficient=(EC50 value of the test sample for rat L6 cell)/(EC50 value of the test sample for the chloroquine-resistant protozoa of falciparum malaria)

The subject of assay [2] is Plasmodium berghei NK65 strain. Put plainly: in vivo 4-day suppressive test, intraperitoneal administration, mouse infected with malaria. Conditions: 4 days. Here is the method:
This test was carried out in accordance with 4-day suppressive test that is a general in vivo test for the activity of an anti-malaria compound. Rodent malaria protozoa (Plasmodium berghei NK65 strain) were used in this test. Infected blood was prepared by infection with intraperitoneal administration into ICR male mouse (5 weeks age; SPF) and passage culture (subculture) thereafter. Blood was drawn from the vein of a tail of the moue infected with malaria, and its infection ratio was determined. After it was confirmed that the infection ratio had been increased up to an appropriated level (10˜20%), the blood infected with malaria was drawn from the heart of the mouse. The infection ratio and number (cells/mL) of erythrocytes were determined. An uninfected mouse (ICR male, 5 weeks age) was then infected with an injection of the infected erythrocytes so diluted with PBS as to comprise the protozoa of […] per dose (0.2 mL) into the vein of its tail.
A test sample was prepared by dissolving the test compounds according to the present invention into physiologic saline (Otsuka Pharmaceuticals Industries) to a predetermined concentration. In the case where the compound was insoluble in water, it was dissolved into DMSO or Tween 20 to prepare the test sample. A control group (no drug-administration group) was treated only with physiologic saline. […]
One group consisted of five mice. The intraperitoneal administration of the test sample started after two hours from the infection with malaria and continued for successive 4 days with a 24-hour interval. After 24 hours from the last administration, blood was drawn from the tail of the infected mouse to prepare a thin-layer smear, and the number of the erythrocytes infected with the malaria protozoa under a microscope with respect to the control group and the test sample groups. Parasitemia, i.e., the infection ratio with the malaria protozoa, was obtained by calculating an average value of the medium three mice except the two mice showing a maximum or minimum inhibition level. A cure rate (suppression) was then calculated from the resulting parasitemia in accordance with the following equation.
Cure rate: suppression (%)=(b−a)/b×100 • a: Infection ratio of the test sample group; and • b: Infection ratio of the control group.

The subject of assay [3] is Trypanosoma cruzi (Tulahuen C2C4 strain). Kind of assay: in vitro growth-inhibiting screening assay, protozoa of American trypanosomiasis. It counts as cell-based. Conditions: for EC50: in infected rat L6 cells, 96 h, CPRG/Nonidet, read-out: 50% growth-inhibiting concentration (nM) Trypanosoma cruzi. Here is the method: The test was done using a trypomastigote and an amastigote of the protozoa of Trypanosoma cruzi (Tulahuen C2C4 strain) present in the infected rat L6 cells. The L6 cells were cultured in RPMI-1640 medium supplemented with 1% of […] (200 mM) and 10% of fetal calf serum under CO2 concentration of 5%, at 37° C.
A test sample was prepared by dissolving the test compounds according to the present invention and a positive control drug (benznidazole) in DMSO to a predetermined concentration. Culture medium containing the protozoa of 5×10^3 was added into each well of 96-well culture plate and cultured for 48 hours. After the medium was exchanged, the test sample comprising the predetermined amount of the test compound, and DMSO without the test compound were added into each well in duplicate.
After incubation of the culture plate for 96 hours in an incubator, a growth-inhibiting activity was assayed as follows. CPRG/Nonidet (50 μL) was added to each well followed by a further 2˜6-hour culture. The culture plate was then attached to an absorption micro titer plate reader, the absorbance at 540 nm was detected to calculate an infection ratio of the protozoa with respect to a group treated with the test sample and a control group. A growth-inhibiting ratio was then calculated from the resulting infection ratio in accordance with the following equation to determine 50% growth-inhibiting concentration (EC50).
Growth-inhibiting ratio (%)=[1−(b−a)/(c−a)]×100 • a: Initial infection ratio; • b: Infection ratio of the test sample group; and • c: Infection ratio of the control group.
A selective toxicity coefficient, which is used as an index for the selective toxicity for the protozoa of American trypanosomiasis, was calculated by the following equation, and the pharmaceutical effect was determined.
A selective toxicity coefficient=(EC50 value of the test sample for rat L6 cell)/(EC50 value of the test sample for the protozoa of American trypanosomiasis).

[4] abbreviates: Table 5, 2.5 mg/kg/day intraperitoneal.
Where [5] appears, read: Table 5, 5.0 mg/kg/day intraperitoneal.
Setting [6] is: Table 5, 10 mg/kg/day intraperitoneal.
Where [7] appears, read: Table 5, 20 mg/kg/day intraperitoneal.

Like-named read-outs stand apart in the source and are kept apart here. Some results are limits rather than exact numbers.

For the molecule `CCCC[N+](CCCC)=c1ccc2nc3ccc(N(C)C)cc3oc-2c1.[O-][Cl+3]([O-])([O-])[O-]` [Compound A-7], the EC50 in assay [1] turned out to be 1.5 nM; in assay [3] it was 22 nM. The “Parasitaemia suppression (%)” value in assay [2] (5 mg/kg/day intraperitoneal) is 90.3%.
Take `CCCC[N+](CCCC)=c1ccc2nc3ccc(N(CC)CC)cc3oc-2c1.[Cl-]` [Compound A-6]: the results for the EC50 in assay [1] and in assay [3] were 2.4 nM and 24 nM, respectively. The “Parasitaemia suppression (%)” value in assay [2] (5 mg/kg/day intraperitoneal) is given as 83.1%.
In the case of `CN(C)c1ccc2nc3ccc(=[N+](C)C)cc-3oc2c1.CN(C)c1ccc2nc3ccc(=[N+](C)C)cc-3oc2c1.[Cl-].[Cl-].[Cl][Zn][Cl]` [Compound A-3], the EC50 was found to be 15.6 nM in assay [1] and 457 nM in assay [3]. Besides, the “Parasitaemia suppression (%)” value in assay [2] (5 mg/kg/day intraperitoneal) turned out to be 17.1%.
Consider `CC[N+](CC)=c1ccc2nc3ccc(N(C)C)cc3oc-2c1` [Compound A-4], for which the Selective toxicity in assay [1] (EC50 rat L6 cell / EC50 P. falciparum K1) came out at 1200; in assay [3] (EC50 rat L6 cell / EC50 protozoa of American trypanosomiasis), 22. Moreover, the EC50 in assay [1] (Plasmodium falciparum, K1) is 2.1 nM; in assay [3] (Trypanosoma cruzi, TULAHUEN), 211 nM. In addition, the “Parasitaemia suppression (%)” value in assay [2] (5 mg/kg/day intraperitoneal) was 85.3%; in assay [2] (setting [4]), 58.7%; in assay [2] (setting [5]), 85.3%; in assay [2] (setting [6]), 99.9%; in assay [2] (setting [7]), over 99.99%.
On to `CCN(CC)c1ccc2nc3ccc(=[N+](CC)CC)cc-3oc2c1.[Cl-]` [A-1 (>95% purity)], for which the EC50 came to 2.1 nM in assay [1] and 15 nM in assay [3]. In addition, the “Parasitaemia suppression (%)” value in assay [2] (5 mg/kg/day intraperitoneal) worked out at 79.2%.
Take `CCN(CC)c1ccc2nc3ccc(=[N+](CC)CC)cc-3oc2c1.[Cl-]` [A-1 (60% purity)]: the EC50 in assay [1] stood at 4.6 nM; in assay [3], 149 nM. Also, the “Parasitaemia suppression (%)” value was 46.3% in assay [2] (5 mg/kg/day intraperitoneal); 30.5% in assay [2] (setting [4]); 46.3% in assay [2] (setting [5]); 82.4% in assay [2] (setting [6]); 95.8% in assay [2] (setting [7]).
